Results taken from PubChem BioAssay (NCI).
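1) Cells in 96-well plates. 2) Compound, 48 h, 5 concentrations. 3) Linear interpolation between surrounding doses. 4) Unreached endpoint = highest concentration. The concentration for full growth arrest is given as TGI.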

Key:
Assay in all cases: growth of human tumour cells (NCI), 48 h
SK-MEL-28 melanoma = tested on: SK-MEL-28 melanoma
BT-549 breast = tested on: BT-549 breast
TK-10 renal = tested on: TK-10 renal
CAKI-1 renal = tested on: CAKI-1 renal
KM12 colon = tested on: KM12 colon
NCI-H226 lung = tested on: NCI-H226 lung
MOLT-4 leukemia = tested on: MOLT-4 leukemia
NCI-H460 lung = tested on: NCI-H460 lung
SK-MEL-2 melanoma = tested on: SK-MEL-2 melanoma
PC-3 prostate = tested on: PC-3 prostate
OVCAR-5 ovarian = tested on: OVCAR-5 ovarian
HCC-2998 colon = tested on: HCC-2998 colon
MDA-MB-231 breast = tested on: MDA-MB-231 breast
HCT-116 colon = tested on: HCT-116 colon
HT29 colon = tested on: HT29 colon
T-47D breast = tested on: T-47D breast
OVCAR-4 ovarian = tested on: OVCAR-4 ovarian

SMILES | TGI (SK-MEL-28 melanoma) | TGI (BT-549 breast) | TGI (TK-10 renal) | TGI (CAKI-1 renal) | TGI (KM12 colon) | TGI (NCI-H226 lung) | TGI (MOLT-4 leukemia) | TGI (NCI-H460 lung) | TGI (SK-MEL-2 melanoma) | TGI (PC-3 prostate) | TGI (OVCAR-5 ovarian) | TGI (HCC-2998 colon) | TGI (MDA-MB-231 breast) | TGI (HCT-116 colon) | TGI (HT29 colon) | TGI (T-47D breast) | TGI (OVCAR-4 ovarian)
COC(=O)C(Cc1ccccc1)NP(=O)(O)OCC1OC(n2ccc(N)nc2=O)C(O)C1O (stereo unspecified) | > 100 µM | > 100 µM | > 100 µM | > 100 µM | > 100 µM | > 100 µM | > 100 µM | > 100 µM | > 100 µM | > 100 µM | > 100 µM | > 100 µM | > 100 µM | > 100 µM | > 100 µM | > 100 µM | > 100 µM
Oc1c(O)c(Cc2ccccc2)c(Cc2ccccc2)c(Cc2ccccc2)c1Cc1ccccc1 | > 10 µM | > 10 µM | > 10 µM | > 10 µM | > 10 µM | > 10 µM | > 10 µM | > 10 µM | > 10 µM | > 10 µM | > 10 µM | > 10 µM | > 10 µM | > 10 µM | > 10 µM | > 10 µM | > 10 µM
C/C(=N\NC(N)=S)C(CN1CCCCC1)C(C1=C(O)c2ccccc2OC1)c1ccccc1 (stereo unspecified) | > 100 µM | > 100 µM | > 100 µM | > 100 µM | > 100 µM | > 100 µM | > 100 µM | > 100 µM | > 100 µM | > 100 µM | > 100 µM | > 100 µM | > 100 µM | > 100 µM | > 100 µM | > 100 µM | > 100 µM
CCCCCCCCCCCCCCCCCCOC(COP(=O)(O)OCC1OC(n2cc(F)c(=O)[nH]c2=O)CC1O)COP(=O)(O)OCC1OC(n2ccc(N)nc2=O)C(O)C1O (stereo unspecified) | > 100 µM | > 93.2 µM | > 100 µM | > 100 µM | > 100 µM | > 100 µM | > 79.8 µM | > 65.3 µM | > 100 µM | 78.8 µM | > 100 µM | > 70.5 µM | > 100 µM | > 100 µM | > 100 µM | > 100 µM | > 100 µM
C#C[C@@H](OC(=O)c1ccc([N+](=O)[O-])cc1)[C@@H]1C[C@H]2O[C@@H]([C@H](C/C=C/CC)OC(=O)c3ccc([N+](=O)[O-])cc3)C[C@H]2O1 | > 100 µM | > 100 µM | > 100 µM | > 100 µM | > 100 µM | > 100 µM | > 100 µM | > 100 µM | > 100 µM | > 100 µM | > 100 µM | > 100 µM | > 100 µM | > 100 µM | > 100 µM | > 100 µM | > 100 µM
O=C1CCCc2cc3c(cc21)CC1(C3)Cc2cc3c(cc2C1)C(=O)CCC3 | 41.7 µM | 90.2 µM | 43.1 µM | > 88 µM | 7.85 µM | 23.4 µM | > 43.1 µM | > 44.2 µM | 15.6 µM | > 100 µM | > 62.5 µM | 10.4 µM | 21.6 µM | 37.9 µM | 7.41 µM | > 100 µM | 82.7 µM
CC(C)C(=O)/C=C/c1ccc(Cl)cc1Cl | 30.6 µM | 14.9 µM | 27.2 µM | 24.8 µM | 13.7 µM | 41 µM | 96.4 µM | 23.4 µM | 27.6 µM | 32.8 µM | 30.7 µM | 30 µM | 38.7 µM | 10 µM | 13.4 µM | 25.7 µM | 20.9 µM
Clc1ccc(C2=Cc3nc2c(-c2ccccc2)c2ccc([nH]2)c(-c2ccccc2)c2nc(c(-c4ccccc4)c4ccc([nH]4)c3-c3ccccc3)C=C2)cc1 | > 62.5 µM | > 62.5 µM | > 62.5 µM | 49.9 µM | > 62.5 µM | > 62.5 µM | > 62.5 µM | > 62.5 µM | > 62.5 µM | > 62.5 µM | > 62.5 µM | > 62.5 µM | > 62.5 µM | > 62.5 µM | > 62.5 µM | > 62.5 µM | > 62.5 µM
CCOC(=O)/C=C(/C(=O)OCC)n1cc(C)c(=O)[nH]c1=O | 15.5 µM | 22.8 µM | 5.48 µM | 2.57 µM | 29 µM | 10.7 µM | 6.51 µM | 29.4 µM | 18.4 µM | 20.6 µM | 13.3 µM | 17.5 µM | 18.4 µM | 5.74 µM | 15.1 µM | 17.5 µM | > 32.2 µM
CCC1=NC(N/N=C/c2ccco2)=N/C1=C\c1ccco1 | > 100 µM | > 100 µM | > 100 µM | > 100 µM | > 100 µM | > 100 µM | > 100 µM | > 100 µM | > 100 µM | > 100 µM | > 100 µM | > 100 µM | > 100 µM | > 100 µM | > 100 µM | > 100 µM | > 100 µM
Nc1nc(Cl)cc(NCC2(CO)CC=CC2)n1 | > 100 µM | > 100 µM | > 100 µM | > 100 µM | > 100 µM | > 100 µM | > 100 µM | > 100 µM | > 100 µM | > 100 µM | > 100 µM | > 100 µM | > 100 µM | > 100 µM | > 100 µM | > 100 µM | > 100 µM
COc1cc([N+](=O)[O-])cc2c1NC(=O)C2(C)SC (stereo unspecified) | > 100 µM | > 100 µM | > 100 µM | > 100 µM | > 100 µM | > 100 µM | > 100 µM | > 100 µM | > 100 µM | > 100 µM | > 100 µM | > 100 µM | > 100 µM | > 100 µM | > 100 µM | > 100 µM | > 100 µM
COc1ccc(N2C(=O)C3c4[nH]c5ccc(OC)cc5c4C4CCC(c5ccccc5)CC4C3C2=O)cc1 (stereo unspecified) | 37 µM | 58.7 µM | > 57.7 µM | 40.6 µM | > 56.3 µM | > 100 µM | 16.9 µM | 21.7 µM | 47.4 µM | > 75.7 µM | > 64.5 µM | 49.5 µM | 25 µM | 22.7 µM | > 40.5 µM | 86.3 µM | 19.3 µM
NC(=S)NN=C1Cc2ccccc2C1 | > 100 µM | > 100 µM | > 100 µM | > 100 µM | > 100 µM | > 100 µM | > 100 µM | > 100 µM | > 100 µM | > 100 µM | > 100 µM | > 100 µM | > 100 µM | > 100 µM | > 100 µM | > 100 µM | > 100 µM
COC(OC)[C@@H]1OC[C@H](n2ccc(=O)[nH]c2=O)[C@H]1O | > 100 µM | > 100 µM | > 100 µM | > 100 µM | > 100 µM | > 100 µM | > 100 µM | > 100 µM | > 100 µM | > 100 µM | > 100 µM | > 100 µM | > 100 µM | > 100 µM | > 100 µM | > 100 µM | > 100 µM
COc1ccccc1CC1(O)OC(=O)c2ccccc21 (stereo unspecified) | > 100 µM | > 100 µM | > 100 µM | > 100 µM | > 100 µM | > 100 µM | > 100 µM | > 100 µM | > 100 µM | > 100 µM | > 100 µM | > 100 µM | > 100 µM | > 100 µM | > 100 µM | > 100 µM | > 100 µM
O=S(=O)(N1CCCCN(S(=O)(=O)C(F)(F)F)CCCN(S(=O)(=O)C(F)(F)F)CCCCN(S(=O)(=O)C(F)(F)F)CCCN(S(=O)(=O)C(F)(F)F)CCCCN(S(=O)(=O)C(F)(F)F)CCCN(S(=O)(=O)C(F)(F)F)CCCCN(S(=O)(=O)C(F)(F)F)CCC1)C(F)(F)F | > 31.6 µM | > 31.6 µM | > 31.6 µM | > 31.6 µM | > 31.6 µM | > 31.6 µM | > 31.6 µM | > 31.6 µM | > 100 µM | > 31.6 µM | > 100 µM | > 31.6 µM | > 31.6 µM | > 31.6 µM | > 31.6 µM | > 31.6 µM | > 100 µM
N#CC(C#N)[C@@H]1CCC=C(Sc2ccccc2)[C@H]1Sc1ccccc1 | 7.57 µM | 11.9 µM | 4.59 µM | 8.29 µM | 12.2 µM | 4.01 µM | > 23.7 µM | 13.6 µM | 12.2 µM | 17.4 µM | 20.3 µM | 6.79 µM | 11.6 µM | 8.4 µM | 13.8 µM | 7.71 µM | 17.2 µM
